The values below come from patent publication US6255497A, “Method for the inhibition of ALDH-I useful in the treatment of alcohol dependence or alcohol abuse” (priority 1998, dated 2001).

Data set [1] has as its system ALDH-I. As to conditions: cited from earlier work.
Data set [2] relates to ALDH-II. As to conditions: cited from earlier work.
In data set [3] the test system is ALDH-I. The conditions noted are these: via reactive product of catabolism; cited from earlier work.
In data set [4] the test system is ALDH-II. The conditions noted are these: via reactive product of catabolism; cited from earlier work.
For data set [5], the system named is ALDH. As to conditions: cited from earlier work.
The conditions of data set [6]: experimental animals; cited from earlier work.
The test system of a further data set is euphoria. As to conditions: double-blind study in humans; cited from earlier work.
Data set [7] relates to alcohol consumption. The conditions noted are these: rat, in vivo; cited from earlier work.
For data set [8] the following is noted: cited from earlier work.
In a further data set the test system is golden hamsters. Nature of the data set: Dose effect on free choice ethanol intake in golden hamsters, i.p. It counts as in vivo, golden hamster. An excerpt: It is common practice in quantitative drug studies with rodents to use intraperitoneal (i.p.) administration to deliver drug doses accurately (Goodman and Gilman, 1975, The Pharmacological Basis of Therapeutics, 5th ed., Macmillan, N.Y., p. 8). In particular, this method avoids variability introduced by technical difficulties of oral administration via feeding (full versus empty stomach, etc.), variations in drug transport in the gastrointestinal tract (variations in intestinal fauna and flora, individual variations in absorption rate expected of outbred animals, etc.) and other factors. […] As a control 1 ml of sterile saline was injected i.p. daily during the baseline period (typically 7-9 days) that establishes drinking preference without the drug. Saline injection i.p. had no effect on the drinking behavior of golden hamsters. Ethanol was provided as a 20% solution. Hamsters could be used more than once (but were not used more than three times) in a cycle of baseline saline injections followed by drug injections, each cycle with the drug at a different dose.
The response to daidzin treatment was computed as:
% Response=(Vo -Vd)×100/Vo

Data set [9] in a line: Plasma drug concentration versus time after a single 10 mg dose. The class given is in vivo. As to conditions: golden hamster. An excerpt:
Five hours later the plasma concentrations of both inhibitors were still above […], far above their competitive inhibition constants for ALDH-I.

The next data set is described as follows: physchem. The conditions noted are these: water.
For data set [10], the target named is T1, ALDH-I (Homo sapiens, UniProt P05091).
T1 sequence (P05091 18-517): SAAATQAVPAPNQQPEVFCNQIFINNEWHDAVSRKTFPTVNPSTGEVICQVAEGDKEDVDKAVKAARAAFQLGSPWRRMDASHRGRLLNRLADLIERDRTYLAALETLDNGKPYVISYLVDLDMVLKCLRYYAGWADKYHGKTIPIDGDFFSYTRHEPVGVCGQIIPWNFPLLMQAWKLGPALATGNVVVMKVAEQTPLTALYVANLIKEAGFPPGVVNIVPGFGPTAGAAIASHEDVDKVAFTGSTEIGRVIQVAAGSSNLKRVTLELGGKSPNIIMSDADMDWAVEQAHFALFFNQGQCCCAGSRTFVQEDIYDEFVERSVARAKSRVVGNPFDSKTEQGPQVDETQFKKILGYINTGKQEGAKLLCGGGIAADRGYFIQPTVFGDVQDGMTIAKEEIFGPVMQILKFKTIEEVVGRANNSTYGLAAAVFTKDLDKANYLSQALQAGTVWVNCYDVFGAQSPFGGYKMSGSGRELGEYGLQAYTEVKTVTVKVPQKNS
Nature of the data set: Competitive inhibition of ALDH-I with acetaldehyde as substrate, progress curve method. The class given is biochemical. Set-up: A liver sample (50 g wet weight) with the usual Caucasian ALDH phenotype (both ALDH-I and ALDH-II present); from tissue; host or cells: human liver (autopsy), purified by CM-52, AMP-agarose and DEAE HPLC. An excerpt:
The progress curve method described by Klyosov and Berezin, 1972, Biokhimiya (Engl. transl.), Plenum, New York, 22: 141-151, was used instead of the initial velocilty method of Example 3 to obtain precis* values for inhibition constants for ALDH-I with acetaldehyde as substrate and the very tight binding novel inhibitors (Table VI).

Data set [11] addresses T2, ALDH-II (Homo sapiens, UniProt P00352).
T2 sequence (P00352 1-501): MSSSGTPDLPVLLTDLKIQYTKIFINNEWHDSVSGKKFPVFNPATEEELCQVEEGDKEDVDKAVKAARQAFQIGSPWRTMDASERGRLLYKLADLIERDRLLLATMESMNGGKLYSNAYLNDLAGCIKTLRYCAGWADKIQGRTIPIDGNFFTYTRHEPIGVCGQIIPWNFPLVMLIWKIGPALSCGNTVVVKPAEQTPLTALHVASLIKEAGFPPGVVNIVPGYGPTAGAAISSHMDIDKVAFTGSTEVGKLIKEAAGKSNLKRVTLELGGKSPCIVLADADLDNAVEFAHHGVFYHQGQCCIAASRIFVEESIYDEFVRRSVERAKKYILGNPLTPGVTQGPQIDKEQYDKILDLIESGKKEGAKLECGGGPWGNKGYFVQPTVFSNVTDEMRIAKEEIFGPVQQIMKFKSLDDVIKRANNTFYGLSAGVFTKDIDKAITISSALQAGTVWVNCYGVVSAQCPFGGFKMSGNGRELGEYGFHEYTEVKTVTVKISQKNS
Nature of the data set: Competitive inhibition of ALDH-II with acetaldehyde as substrate. It counts as biochemical. More on the design: A liver sample (50 g wet weight) with the usual Caucasian ALDH phenotype (both ALDH-I and ALDH-II present); from tissue; host or cells: human liver (autopsy), purified by CM-52, AMP-agarose and DEAE HPLC. The conditions noted are these: acetaldehyde as substrate, competitive; read-out: Ki, ALDH-II.

In a further data set the test system is ALDH-I or ALDH-II. Nature of the data set: Survey of structurally related compounds for ALDH inhibition. It counts as biochemical, human. The method, then:
For the study of the inhibition of ALDH-I by structurally related compounds to generate the data shown in Tables IV and V, each individual compound was dissolved at different concentrations in methanol and was added to the assay medium as 10 μL aliquots. For controls, 10 […] of methanol was added to the assay medium. In a standard ALDH-I assay, the assay medium contains 0.1 M sodium pyrophosphate pH 9.5, 0.15 M KCl, 1 mM NAD^+, 1% methanol, 5 μM acetaldehyde, 5-10 nM ALDH-I and various concentrations of inhibitor. The enzyme reaction rates were measured by monitoring the production of NADH at 340 nm (ε=6.22 mM^-1 cm^-1) with a Varian Cary 219 spectrophotometer thermostated at 25° C. (Fong et al., 1989, supra). The inhibition of ALDH-I by the inhibitors was calculated as: [formula]
where Vo is the enzyme reaction rate measured in the absence of inhibitor, and where Vi is the enzyme reaction rate measured in the presence of inhibitor. […] IC50 values are related to the underlying Ki values.

Another data set relates to ADH isozymes. Nature of the data set: Inhibition of ADH. The class given is biochemical, human.
The conditions of data set [12]: intravenous, mice; cited from earlier work.
The conditions of data set [13]: two human volunteers, after 60 hours; cited from earlier work.
In data set [14] the test system is ALDH-II. The conditions noted are these: high Km cytosolic isozyme; cited from earlier work.
For data set [15], the system named is ALDH-I. As to conditions: cited from earlier work. The source holds these as a separate data set.
Data set [16] relates to ALDH. As to conditions: cited from earlier work. The source holds these as a separate data set.
Data set [17] deals with dopamine-β-hydroxylase, microsomal mixed function oxidases and other sulfhydryl-containing enzymes. As to conditions: cited from earlier work.
Data set [18] deals with alcohol consumption. The conditions noted are these: placebo-controlled clinical trials; cited from earlier work.
Data set [19] has as its system class I ADH isozymes containing at least one γ-subunit. The conditions noted are these: cited from earlier work.
The next data set deals with human class IV ADH. As to conditions: cited from earlier work.
Substrate in data set [20]: C=O
In words: purified protein, by the assay type. As to conditions: pH 9.5; 25.0 °C.

≈ marks a conversion by molar mass, not a printed value. Like-named read-outs stand apart in the source and are kept apart here.

For the molecule `N#CN` [cyanamide], in the data set with ALDH-I [1], the “inhibition of ALDH-I in vitro” value is recorded as “Neither ALDH-I (the low Km isozyme) nor ALDH-II (the high Km isozyme) are inhibited in vitro”. Further, in the data set with ALDH-II [2], the “inhibition of ALDH-II in vitro” value is listed as “Neither ALDH-I (the low Km isozyme) nor ALDH-II (the high Km isozyme) are inhibited in vitro”. In addition, the “inhibition of ALDH-I in vivo” value in the data set with ALDH-I [3] was “inhibits both isozymes”. For the same molecule, in the data set on ALDH-II [4], the “inhibition of ALDH-II in vivo” value is listed as “inhibits both isozymes”. In the data set on ALDH [5] (in vivo), the “reversibility of ALDH inhibition” value was “reversible” and the “time of maximal ALDH inhibition after drug administration” value was 1 to 2 h. The “restoration of ALDH activity within 24 hours” value with ALDH [5] (within 24 hours) is 80%. In addition, the antithyroid activity result in data set [6] is listed as “significant antithyroid activity”. Also, the “effect with low doses of alcohol” value in the data set with euphoria was “induces and enhances euphoria”. For the same molecule, in the data set with alcohol consumption [7], the “alcohol consumption after alcohol deprivation” value is on record as “increase in alcohol consumption”. In addition, in [8] (alcoholics treated with cyanamide), the liver injury result was “liver injury, including generation of ground-glass inclusion bodies in liver cells”. The cardiotoxic effects result in data set [8] (in vivo) is “cardiotoxic effects, including hypotension and even cardiac death”.

As usually defined, the solubility is the concentration that dissolves in the medium under given conditions. The low end stands for little dissolved substance, the high end for much dissolved substance. By Ki is commonly meant the equilibrium dissociation constant of an inhibitor or competing ligand from its target. Take `O=C(O)CCCCCCOc1ccc2c(=O)c(-c3ccc(O)cc3)coc2c1` [Daidzein 7-(ω-carboxyhexyl) ether, daidzein 7-(ω-carboxyhexyl) ether]: in the data set on golden hamsters (10 mg/day, i.p., trained hamster B7), the “suppression of alcohol intake, hamster B7” value is recorded as 69%. Besides, the “suppression of alcohol intake, hamster E23” value with golden hamsters (10 mg/day, i.p., trained hamster E23) was determined as 72%. In the data set on golden hamsters (assuming a dose response slope similar to that of daidzin), the “potency relative to daidzin, suppression of alcohol intake” value is listed as “not more than twice as potent as daidzin”. For the same molecule, in [9] (i.p.), the “time to maximal plasma concentration after injection” value is listed as “within about an hour after injection”. In addition, in [9] (plasma, ip, read-out: maximal plasma concentration), the Cmax was determined as 4.5 µM. The molecule also had a solubility in “physchem” of 13 mM (≈ 4970 µg/mL). In addition, the inhibition constant (Ki) was determined as 9 nM on ALDH-I [10] and 215 nM at ALDH-II [11].

For `CCOc1ccc2c(=O)c(-c3ccc(O)cc3)coc2c1` [Daidzein 7-ethyl ether], the inhibition constant Ki on ALDH-I [10] was 38 nM; on ALDH-II [11], 440 nM.

In the case of `O=c1c(-c2ccc(O)cc2)coc2cc(O)ccc12` [Daidzein], the “ALDH inhibition” value in the data set on ALDH-I or ALDH-II is reported as “does not inhibit ALDH”. Besides, the ADH inhibition entry in the data set on ADH isozymes is reported as “selectively inhibits certain ADH isozymes”. The half-life entry in data set [12] is given as “on the order of one hour”. Also, in data set [13], the “excretion in urine and feces” value is “little daidzein had appeared in urine and feces after 60 hours”.

With `CCN(CC)C(=S)SSC(=S)N(CC)CC` [disulfiram, tetraethylthiuram disulfide], the “inhibition of ALDH-II in vitro” value with ALDH-II [14] is given as “potent inhibitor”. Further, the “inhibition of ALDH-I in vitro” value with ALDH-I [15] (major mitochondrial isozyme) is on record as “only slightly”. Moreover, in the data set with ALDH-I [15] (trace amounts of 2-mercaptoethanol or methanethiol), the “inhibition of ALDH-I in vitro in presence of mercaptans” value is given as “inactivated”. In the data set on ALDH [16], the “reversibility of ALDH inhibition in vivo” value is reported as “irreversible” and the “time over which ALDH is inhibited in vivo” value is 12 h. Moreover, the “time to restoration of ALDH activity” value in the data set on ALDH [16] (in vivo, de novo enzyme synthesis) is reported as at least 6 days. For the same molecule, the “specificity of enzyme inhibition” value in data set [17] is on record as “broadly acting but non-specific inhibitor”. Besides, the “reduction of alcohol consumption vs placebo” value with alcohol consumption [18] is listed as “no more effective than the placebo control”. Also, the “effect with low doses of alcohol” value in the data set on euphoria is “induces and enhances euphoria”. The “skin toxicity and neuropathy” value in data set [8] (in vivo) is on record as “peripheral neuropathy”.

Consider `C[C@]12CC[C@H]3[C@@H](CCC4=CC(=O)CC[C@@]43C)[C@@H]1CC[C@@H]2O` [testosterone], for which, in data set [19], the “selective inhibition of γ-subunit class I ADH” value was “selectively inhibited”.

One may read the Km as the substrate concentration at which the rate is half of its maximum. For `CCO` [ethanol], the Km in the data set on human class IV ADH is 41 mM.

B1: human ALDH-II (Homo sapiens) (protein)
chain: T2 sequence (P00352 1-501)
For the molecule B1, the Michaelis-Menten constant (Km) in data set [20] came out at 6.6 mM.
